Columns and labels:
Assay type in all cases: cell-based, human
H9 hESCs = assay: Activin A/BMP4 directed cardiac differentiation with GSK3 inhibitor pretreatment, cTnT flow cytometry; conditions: for contracting cardiomyocytes generated: Activin A and BMP4 protocol without GSK3 inhibitor, H9 cells
Method: (§1) Cardiac directed differentiation using Activin A and BMP4: hPS cells maintained on Matrigel® in mTeSR1 were dissociated into single cells with Accutase (Invitrogen) at 37° C. for 5 min and then seeded onto a Matrigel®-coated cell culture dish at 100,000 cell/cm^2 in mTeSR1 supplemented with 5 μM ROCK inhibitor (Y-27632, Stemgent) (day −5). Cells were cultured in mTeSR1, changed daily. At day 0, cells were treated with 100 ng/ml Activin A (R&D) in RPMI/B27-insulin. After 24 hr, the medium was changed to RPMI/B27-insulin supplemented with 5 ng/ml BMP4 (R&D) for another 4 days. At day 5, the medium was changed with RPMI/B27-insulin. At day 7 the cells were transferred to RPMI/B27, and medim changed every 3 days. When using GSK3 inhibitors to stimulate differentiation, cells were cultured in mTeSR1 containing BIO or CHIR99021 from day −3 to day 0.
(§2) Flow Cytometry: Cells were dissociated into single cells and then fixed with 1% paraformaldehyde for 20 min at room temperature and stained with primary and secondary antibodies in PBS plus 0.1% Triton X-100 and 0.5% BSA. For the cell proliferation assay, a 17-hour pulse of BrdU was performed to identify dividing cardiomyocytes (Zhang et al., Circ. Res. 104, e30-41 (2009)). Data were collected on a FACSCaliber flow cytometer (Beckton Dickinson) and analyzed using FlowJo.
Undifferentiated H9 hESCs were cultured in the presence of 0-8 μM CH for three days prior to EB formation. EBs were cultured in suspension for 4 days before transferring to 0.1% gelatin coated plates. […] The inventors also applied the GSK3 inhibitors CH and BIO to undifferentiated H9 hESCs three days prior to directed differentiation to cardiomyocytes via Activin A and BMP4.

IMR90C4 iPSC line = assay: Activin A/BMP4 directed cardiac differentiation with BIO pretreatment, cTnT flow cytometry; conditions: three days of BIO pretreatment prior to Activin A and BMP4; day 15
Method: as §1
as §2, with “FlowJo. […]” for “FlowJo.”

[1] = tested on: Smad1/5 and Smad2 phosphorylation in 19-9-11 ishcat cells; assay: Smad1/5 and Smad2 phosphorylation, western blot; conditions: for Smad1/5 and Smad2 phosphorylation: 100 ng/ml Activin A at day 0 and 5 ng/ml BMP4 at day 1
Method: Western Blot Analysis: Cells were lysed in M-PER Mammalian Protein Extraction Reagent (Pierce) in the presence of Halt Protease and Phosphatase Inhibitor Cocktail (Pierce). Proteins were separated by 10% Tris-Glycine SDS/PAGE (Invitrogen) under denaturing conditions and transferred to a nitrocellulose membrane. After blocking with 5% milk in TBST, the membrane was incubated with primary antibody overnight at 4° C. The membrane was then washed, incubated with an anti-mouse/rabbit peroxidase-conjugated secondary antibody (1:1000, Cell Signaling) at room temperature for 1 hr, and developed by SuperSignal chemiluminescence (Pierce).
To determine whether canonical Wnt signaling requires TGFβ superfamily signaling to induce cardiogenesis, the inventors quantified cTnT+ cell generation in 19-9-11 ishcat-2 cells when Activin A and BMP4 signaling antagonists were presented during the first 24 hr of cardiomyocyte induction with 12 μM CH. All samples were treated with dox at 48 hours. […] To further investigate the role of TGFβ superfamily signaling in Wnt pathway-mediated cardiogenesis the inventors assessed Smad1/5 and Smad2 phosphorylation, downstream of BMP4 and Activin A signaling respectively. As expected, substantial Smad1/5 and Smad2 phosphorylation was detected in cells that had been treated with Activin A and BMP4 (FIGS. 9B and 10A).

19-9-11 ishcat-2 cells = assay: cTnT+ cell generation with Activin A and BMP4 signaling antagonists during CH induction; conditions: dox at 48 hours
Method: (§3) cardiac directed differentiation via small molecules: Cells were dissociated and plated as described in the Activin/BMP4 protocol. When hPS cells maintained on Matrigel® or Synthemax plates achieved confluence, cells were treated with CH in RPMI/B27-insulin for 24 hr (day 0 to day 1). The medium was changed to RPMI/B27-insulin, followed by 2 μg/ml dox treatment at different times between day 1 and day 5 for transgenic cell lines. For genetically unmodified lines, 5 μM IWP2 (Tocris) or IWP4 (Stemgent) was added at day 3 and removed during the day 5 medium change. Cells were maintained in the RPMI/B27 starting from day 7, with the medium changed every 3 days.
as §2, with “For the cell proliferation assay, a 17-hour pulse of BrdU was performed to identify dividing cardiomyocytes (Zhang et al., Circ. Res. 104, e30-41 (2009)).” left out
To determine whether canonical Wnt signaling requires TGFβ superfamily signaling to induce cardiogenesis, the inventors quantified cTnT+ cell generation in 19-9-11 ishcat-2 cells when Activin A and BMP4 signaling antagonists were presented during the first 24 hr of cardiomyocyte induction with 12 μM CH. […]

19-9-11 iPSCs = assay: Cardiac directed differentiation via small molecules on Matrigel, cTnT/MF20 flow cytometry; conditions: for cTNT+ or MF20+ cells: 12 μM CH at day 0, then 5 μM Wnt inhibitor at day 3, after 15 days
Method: as §3, §2
While shRNA inhibition of β-catenin provides specific and facile temporal regulation of canonical Wnt signaling, this method requires genetic modification of the hPS cell line which limits its potential clinical utility. The inventors next used the mechanistic insight these modified lines provided regarding the sufficiency of canonical Wnt signaling in cardiomyogenesis to develop a completely defined, growth factor free method of efficiently generating cardiomyocytes from unmodified hPS cell lines using small molecules. First, 19-9-11 iPSCs were maintained in mTeSR1 on Matrigel® for five days, and then the medium was switched to RPMI/B27-insulin containing 12 μM CH. IWP4 and IWP2, which prevent palmitylation of Wnt proteins by porcupine thereby blocking Wnt protein secretion and activity (Chen et al., Nat. Chem. Biol. 5:100-107 (2009)), were used to inhibit Wnt signaling. […] Similar to results obtained with the 19-9-11 ishcat-1 cell line, CH treatment of 19-9-11 cells alone only generated 16% cTNT+ or MF20+ cells after 15 days, while adding 5 μM IWP4 or IWP2 at day 3 increased this to 87% cTNT+ or MF20+ cells. […] In order to achieve fully defined culture conditions, Matrigel® was replaced with a defined peptide acrylate surface (Synthemax) during both hPS cell expansion and differentiation. […] Thus, optimization of canonical WNT signaling via stage-specific addition of small molecule agonists and antagonists produces high yields of functional cardiomyocytes in a completely defined, growth factor free culture system.

[2] = tested on: 19-9-11 and IMR90C4 iPSCs; assay: Cardiac directed differentiation via small molecules on Synthemax plates, cTnT/MF20 flow cytometry; conditions: 12 μM CH at day 0 and 5 μM IWP4 at day 3, day 15
Method: as §3, §2
While shRNA inhibition of β-catenin provides specific and facile temporal regulation of canonical Wnt signaling, this method requires genetic modification of the hPS cell line which limits its potential clinical utility. […]

In the case of `O=C1Nc2cc(Br)ccc2/C1=C1/Nc2ccccc2/C1=N\O` [BIO], the cTNT-labeled cells (H9 hESCs; GSK3 inhibitor (1 μM) 3 days prior to Activin A and BMP4, day 15, average) is reported as 50% and the “generation of cTNT-expressing cells” value (IMR90C4 iPSC line) is reported as “enhanced generation of cTNT-expressing cells in the IMR90C4 iPSC line in a dose-dependent manner”.

With `CC(C)Oc1ccc(-c2cnc3c(-c4ccnc5ccccc45)cnn3c2)cc1` [DMH1] the Smad1/5 phosphorylation ([1]; 12 μM CH plus DMH1) was “strongly attenuated” and the “percentage of cTnT+ cells” value (19-9-11 ishcat-2 cells; 0.2-1 μM DMH1 with 12 μM CH for first 24 hr, day 15) was “decreased the percentage of cTnT+ cells in a concentration-dependent manner”.

For `Cc1ccc2nc(NC(=O)CSc3nc4c(c(=O)n3-c3ccccc3)SCC4)sc2c1` [IWP2, N-(6-Methyl-2-benzothiazolyl)-2-[(3,4,6,7-tetrahydro-4-oxo-3-phenylthieno[3,2-d]pyrimidin-2-yl)thio]-acetamide], the “cTNT+ or MF20+ cells” value (19-9-11 iPSCs) was 87%.

For `COc1ccccc1-n1c(SCC(=O)Nc2nc3ccc(C)cc3s2)nc2c(c1=O)SCC2` [IWP4, 2-(3,4,6,7-tetrahydro-3-(2-methoxyphenyl)-4-oxothieno[3,2-d]pyrimidin-2-ylthio)-N-(6-methylbenzo[d]thiazol-2-yl)acetamide], the “cTNT+ or MF20+ cells” value [2] was “approximately 85%”, the “IWP4 concentration giving optimal generation of cardiomyocytes” value (19-9-11 iPSCs; 12 μM CH at day 0, IWP4 added at day 3) was 5 µM and the “cTNT+ or MF20+ cells” value (19-9-11 iPSCs) was 87%.

`NC(=O)c1ccc(-c2nc(-c3ccc4c(c3)OCO4)c(-c3ccccn3)[nH]2)cc1` [SB431542] was tested, and the Smad2 phosphorylation ([1]; 12 μM CH plus SB431542) was “diminished” and the “concentrations that completely blocked cardiomyocyte specification” value (19-9-11 ishcat-2 cells; with 12 μM CH for first 24 hr, cTnT+ at day 15) was “greater than 2 μM”.

B1: BMP4: growth factor (R&D) used at 5 ng/ml for directed cardiac differentiation (protein, UniProt P12644 293-408, looked up)
Bone morphogenetic protein 4: SPKHHSQRARKKNKNCRRHSLYVDFSDVGWNDWIVAPPGYQAFYCHGDCPFPLADHLNSTNHAIVQTLVNSVNSSIPKACCVPTELSAISMLYLDEYDKVVLKNYQEMVVEGCGCR
B1 was tested, and the contracting cardiomyocytes generated (H9 hESCs) was “very few contracting cardiomyocytes” and the “Smad1/5 and Smad2 phosphorylation” value [1] was “substantial”.

B2: Activin A: growth factor (R&D) used at 100 ng/ml for directed cardiac differentiation (protein, UniProt P08476 311-426, looked up)
Inhibin beta A chain: GLECDGKVNICCKKQFFVSFKDIGWNDWIIAPSGYHANYCEGECPSHIAGTSGSSLSFHSTVINHYRMRGHSPFANLKSCCVPTKLRPMSMLYYDDGQNIIKKDIQNMIVEECGCS
modifications: Inhibin beta A chain
notes: growth factor (R&D) used at 100 ng/ml for directed cardiac differentiation
B2 was tested, and the contracting cardiomyocytes generated (H9 hESCs) was “very few contracting cardiomyocytes” and the “Smad1/5 and Smad2 phosphorylation” value [1] was “substantial”.
